In the NIST ThermoML archive (doi:10.1021/acs.jced.6b00750):

Details: Liquid; for mass density: Vibrating wire densiometer; for viscosity: Vibrating wire viscometry

CCCCCCCCCCCCCCCC [hexadecane]
Details | mass density [kg/m3] | viscosity [mPa·s]
298.36 K, 1060 kPa | 769.2 | 3.107
298.36 K, 1080 kPa | 769.2 | 3.109
298.36 K, 10010 kPa | 775 | 3.497
298.36 K, 21090 kPa | 781.2 | 4.032
298.36 K, 30500 kPa | 786.4 | 4.534
298.61 K, 970 kPa | 768.9 | 3.143
298.61 K, 10340 kPa | 774.7 | 3.562
298.61 K, 20570 kPa | 780.8 | 4.041
298.61 K, 30370 kPa | 785.9 | 4.588
323.21 K, 1090 kPa | 751.5 | 1.874
323.21 K, 1250 kPa | 751.7 | 1.872
323.21 K, 21100 kPa | 765.2 | 2.387
323.21 K, 40990 kPa | 776.9 | 2.957
323.21 K, 60490 kPa | 787.1 | 3.598
323.21 K, 80320 kPa | 796 | 4.381
323.21 K, 102810 kPa | 803.3 | 5.08
323.22 K, 990 kPa | 752.4 | 1.878
323.22 K, 20960 kPa | 764.8 | 2.429
323.22 K, 42100 kPa | 777.2 | 3.007
323.22 K, 61170 kPa | 787.4 | 3.666
323.22 K, 81170 kPa | 796 | 4.471
348.2 K, 610 kPa | 734.8 | 1.275
348.2 K, 1010 kPa | 734.4 | 1.255
348.2 K, 1070 kPa | 734.5 | 1.251
348.2 K, 20050 kPa | 749.2 | 1.57
348.2 K, 20370 kPa | 749.8 | 1.595
348.2 K, 40520 kPa | 762.5 | 1.939
348.2 K, 40780 kPa | 762.9 | 1.97
348.2 K, 60680 kPa | 773.7 | 2.356
348.2 K, 62000 kPa | 773.9 | 2.398
348.2 K, 80380 kPa | 783.3 | 2.813
348.2 K, 80450 kPa | 783.5 | 2.806
348.2 K, 100940 kPa | 791.9 | 3.278
373.12 K, 1210 kPa | 717.2 | 0.911
373.12 K, 1240 kPa | 717.3 | 0.91
373.12 K, 20080 kPa | 733.9 | 1.136
373.12 K, 40700 kPa | 748.6 | 1.397
373.12 K, 60760 kPa | 760.8 | 1.678
373.12 K, 80760 kPa | 771.3 | 1.988
373.12 K, 100220 kPa | 780.9 | 2.303
373.25 K, 1370 kPa | 717.7 | 0.926
373.25 K, 19850 kPa | 733.7 | 1.148
373.25 K, 40190 kPa | 748.6 | 1.399
373.25 K, 59970 kPa | 760.4 | 1.692
373.25 K, 81310 kPa | 771.4 | 1.995
398.21 K, 1230 kPa | 700.1 | 0.693
398.21 K, 1670 kPa | 700.4 | 0.694
398.21 K, 20450 kPa | 719.1 | 0.872
398.21 K, 40750 kPa | 735.1 | 1.066
398.21 K, 60560 kPa | 748.2 | 1.265
398.21 K, 80390 kPa | 759.4 | 1.488
398.21 K, 100460 kPa | 769.4 | 1.71
398.28 K, 1050 kPa | 700.3 | 0.697
398.28 K, 21190 kPa | 719.6 | 0.879
398.28 K, 41290 kPa | 735.3 | 1.082
398.28 K, 59990 kPa | 747.8 | 1.267
398.28 K, 80670 kPa | 759.3 | 1.498
423.26 K, 1360 kPa | 682.2 | 0.542
423.26 K, 1420 kPa | 682.4 | 0.544
423.26 K, 20790 kPa | 704.2 | 0.691
423.26 K, 40900 kPa | 721.5 | 0.845
423.26 K, 60040 kPa | 735.2 | 0.998
423.26 K, 80490 kPa | 747.7 | 1.171
423.26 K, 100020 kPa | 758.2 | 1.348
423.31 K, 1460 kPa | 682.9 | 0.554
423.31 K, 20610 kPa | 704.4 | 0.699
423.31 K, 40760 kPa | 721.8 | 0.853
423.31 K, 60120 kPa | 735.2 | 1.012
423.31 K, 80990 kPa | 748.2 | 1.189
448.23 K, 1100 kPa | 664 | 0.437
448.23 K, 1170 kPa | 664.1 | 0.438
448.23 K, 20220 kPa | 688.7 | 0.559
448.23 K, 40500 kPa | 708.1 | 0.689
448.23 K, 60460 kPa | 723.5 | 0.82
448.23 K, 80430 kPa | 736.5 | 0.958
448.23 K, 100270 kPa | 748 | 1.098
448.48 K, 1230 kPa | 663.8 | 0.445
448.48 K, 20750 kPa | 688.9 | 0.571
448.48 K, 40680 kPa | 707.8 | 0.702
448.48 K, 60650 kPa | 723.1 | 0.831
448.48 K, 80720 kPa | 736.2 | 0.97
473.54 K, 1250 kPa | 645.4 | 0.359
473.54 K, 1270 kPa | 645.8 | 0.36
473.54 K, 20770 kPa | 674.2 | 0.469
473.54 K, 40980 kPa | 695.3 | 0.579
473.54 K, 60770 kPa | 711.8 | 0.688
473.54 K, 80500 kPa | 725.5 | 0.803
473.54 K, 101080 kPa | 738.1 | 0.924
473.85 K, 1400 kPa | 645.2 | 0.367
473.85 K, 21260 kPa | 674.3 | 0.478
473.85 K, 41040 kPa | 694.7 | 0.59
473.85 K, 61190 kPa | 711.3 | 0.706
473.85 K, 81710 kPa | 725.7 | 0.815
